From patent US5834521A, “Substituted dibenz (A F)azulenes and methods of preparation” (Ortho Pharmaceutical Corporation, priority 1996, dated 1998)

Target: T1, Progestin Receptor (Oryctolagus cuniculus, UniProt P06186)
T1 construct: The high speed supernatant fraction was used as the receptor preparation; from tissue; host or cells: uterus of New Zealand rabbits, 200,000×g supernatant (cytosol)
T1 sequence (P06186 1-930): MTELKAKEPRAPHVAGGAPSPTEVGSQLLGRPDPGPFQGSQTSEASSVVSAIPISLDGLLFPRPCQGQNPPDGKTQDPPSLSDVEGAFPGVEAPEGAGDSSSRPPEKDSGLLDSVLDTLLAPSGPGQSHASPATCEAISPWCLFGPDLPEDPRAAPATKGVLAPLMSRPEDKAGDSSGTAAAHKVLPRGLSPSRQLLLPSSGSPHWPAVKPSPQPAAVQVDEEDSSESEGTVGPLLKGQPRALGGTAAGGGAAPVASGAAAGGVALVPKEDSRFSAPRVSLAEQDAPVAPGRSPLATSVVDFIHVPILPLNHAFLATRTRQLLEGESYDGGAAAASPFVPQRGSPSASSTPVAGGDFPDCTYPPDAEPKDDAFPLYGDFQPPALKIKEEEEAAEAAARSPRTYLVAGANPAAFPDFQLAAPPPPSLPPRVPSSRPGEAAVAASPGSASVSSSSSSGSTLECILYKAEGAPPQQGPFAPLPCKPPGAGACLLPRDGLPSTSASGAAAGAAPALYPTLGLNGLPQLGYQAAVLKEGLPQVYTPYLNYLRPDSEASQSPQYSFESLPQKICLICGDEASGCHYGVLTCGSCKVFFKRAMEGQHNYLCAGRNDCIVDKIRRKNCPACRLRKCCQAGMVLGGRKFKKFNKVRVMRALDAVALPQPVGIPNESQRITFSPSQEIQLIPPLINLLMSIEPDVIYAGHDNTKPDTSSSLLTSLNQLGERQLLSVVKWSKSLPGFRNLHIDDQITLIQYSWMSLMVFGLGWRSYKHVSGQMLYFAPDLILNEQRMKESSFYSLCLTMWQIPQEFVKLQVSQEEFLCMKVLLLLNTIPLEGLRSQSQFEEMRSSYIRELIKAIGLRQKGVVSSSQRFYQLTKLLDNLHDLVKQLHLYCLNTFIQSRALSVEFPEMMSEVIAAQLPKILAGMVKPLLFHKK
Assay: Progestin Receptor Binding (competitive binding, 3H-promegestone, rabbit uterus receptor preparation)
Set-up: species or system New Zealand rabbits
Settings: 3H-promegestone displacement, 4° C., 18 h
Experimental: Progestin Receptor Binding
The procedure used was essentially that of J. L. McGuire, C.
Uteri from New Zealand rabbits (1.5 to 2.5 kg) were placed in a cold buffer A (0.01 mol Tris-HCl, pH 8.0, 0.001 mol EDTA, 0.25 mol sucrose). The uteri were minced, washed and homogenized in cold buffer A. The homogenate (2 g wet tissue/mL buffer) was centrifuged at 200,000×g for 1 h at 4° C. The high speed supernatant fraction was used as the receptor preparation.
A competitive binding assay was performed by mixing 3H-promegestone with the receptor preparation and adding a known amount of unlabeled compound. This mixture was incubated at 4° C. for 18 h. The compounds bound to the receptor were separated from those which were free in solution using dextran coated charcoal and the amount of isotope bound to the receptor was determined by scintillation counting. The extent of the compound's interaction with the receptor is measured as the percent reduction in the total isotope bound caused by the unlabeled test compound as compared to the control levels. The receptor screen consists of measuring the reduction in the total isotope bound caused by the unlabeled test compound at […] final concentrations.

| IC50 [nM] | Molecule |
| --- | --- |
| 40 | COc1ccc2c(c1)C[C@@]1(C)Cc3ccccc3C1=C[C@H]2C (relative stereo) [Compound 3] |
| 476 | COc1ccc2c(c1)C[C@@]1(C)Cc3ccccc3[C@H]1C[C@H]2C (relative stereo) [Compound 8] |
| 337 | COc1ccc2c(c1)C[C@@]1(C)Cc3ccccc3[C@H]1[C@H](O)[C@H]2C (relative stereo) [Compound 13, 6,11a-Dimethyl-5-hydroxy-9-methoxy-4b,5,6,11,11a,12-hexahydrodibenz[a,f]azulene (α--OH)] |
| 353 | COc1ccc2c(c1)C[C@@]1(C)Cc3ccccc3[C@@H]1C[C@H]2C (relative stereo) [Compound 16] |
| 160 | CC[C@]12Cc3ccccc3C1=C[C@@H](C)c1ccc(OC)cc1C2 (relative stereo) [Compound 17] |
| 421 | CC[C@]12Cc3cc(OC)ccc3C1=C[C@@H](C)c1ccc(OC)cc1C2 (relative stereo) [Compound 22] |
| 190 | COc1cc2c(cc1C(C)=O)[C@H](C)C=C1c3ccccc3C[C@]1(C)C2 (relative stereo) [Compound 44] |
| 25 | COc1ccc2c(c1)C[C@@]1(C)Cc3cc(F)ccc3[C@H]1C[C@H]2C (relative stereo) [Compound 47] |
| 118 | COc1cccc2c1[C@H](C)C[C@@H]1c3ccccc3C[C@]1(C)C2 (relative stereo) [Compound 54] |
| 1680 | COc1ccc2c(c1)C[C@@]1(C)Cc3ccccc3C1[C@@H](O)[C@H]2C (relative stereo) [Compound 64, 6,11a-Dimethyl-5-hydroxy-9-methoxy-4b,5,6,11,11a,12-hexahydrodibenz[a,f]azulene (β-OH)] |
| 439 | CCC[C@@]12Cc3cc(OC)ccc3CC[C@@H]1c1ccc(OC)cc1C2 (relative stereo) [Compound 71] |
| 100 | CCC[C@@]12Cc3cc(OC)ccc3CC[C@@H]1c1ccc(F)cc1C2 (relative stereo) [Compound 72] |
| 100 | CCC[C@]12Cc3cc(F)ccc3[C@H]1CCc1c(cccc1OC)C2 (relative stereo) [Compound 73] |
| 161 | CCC[C@]12Cc3ccccc3C1=C[C@@H](C)c1ccc(NC(C)=O)cc1C2 (relative stereo) [Compound 84] |
| 1670 | COc1cc2c(c(OC)c1)[C@H](C)C[C@@H]1c3ccccc3C[C@]1(C)C2 (relative stereo) [Compound 86] |
| 729 | CC(=O)Oc1cc2c(c(OC(C)=O)c1)[C@H](C)C[C@@H]1c3ccccc3C[C@]1(C)C2 (relative stereo) [Compound 87] |
| 139 | CCC[C@]12Cc3ccccc3C1=C[C@@H](C)c1ccc(Br)cc1C2 (relative stereo) [Compound 92] |
| 90 | CCC[C@]12Cc3ccccc3C1=C[C@@H](C)c1ccc(I)cc1C2 (relative stereo) [Compound 99] |
| 143 | COc1cccc2c1CC=C1c3ccccc3CC1(C)C2 (stereo not shown) [Compound 1, 7-Methoxy-11a-methyl-6,11,11a,12-tetrahydrodibenz[a,f]azulene] |
| 239 | COc1ccc2c(c1)CC1(C)Cc3ccccc3C1=CC2 (stereo not shown) [Compound 2, 9-Methoxy-11a-methyl-6,11,11a,12-tetrahydrodibenz[a,f]azulene] |

| IC50 [nM] | Molecule |
| --- | --- |
| 456 | C[C@@H]1CC2c3ccccc3C[C@]2(C)Cc2cc(O)ccc21 (stereo partly shown) [Compound 12] |
| 212 | COc1ccc2c(c1)CC1(C)Cc3ccccc3C1C(=O)C2C (stereo not shown) [Compound 14, 6,11a-Dimethyl-9-methoxy-5-oxo-4b,5,6,11,11a,12-hexahydrodibenz[a,f]azulene] |
| 668 | COc1ccc2c(c1)CC1(C)Cc3cc(OC)ccc3C1C(O)C2C (stereo not shown) [Compound 19] |
| 419 | CC[C@]12Cc3ccccc3C1C[C@@H](C)c1ccc(OC)cc1C2 (stereo partly shown) [Compound 23] |
| 258 | CC1c2cc([N+](=O)[O-])c(O)cc2CC2(C)Cc3ccccc3C2C1O (stereo not shown) [Compound 24, 6,11a-Dimethyl-5,9-dihydroxy-8-nitro-4b,5,6,11,11a,12-hexahydrodibenz[a,f]azulene] |
| 121 | COc1cc2c(cc1[N+](=O)[O-])C(C)C(O)C1c3ccccc3CC1(C)C2 (stereo not shown) [Compound 25, 6,11a-Dimethyl-5-hydroxy-9-methoxy-8-nitro-4b,5,6,11,11a,12-hexahydrodibenz[a,f]azulene] |
| 32 | CC1CC2c3ccccc3CC2(C)Cc2ccccc21 (stereo not shown) [Compound 28, 6,11a,-Dimethyl-4b,5,6,11,11a,12-hexahydrodibenz[a,f]azulene] |
| 15 | CCCC12Cc3ccccc3C1=CCc1c(cccc1OC)C2 (stereo not shown) [Compound 29] |
| 425 | COc1ccc2c(c1)CC1(C)Cc3cc(OC)ccc3C1=CC2 (stereo not shown) [Compound 34, 6,11,11a,12-Tetrahydro-2,9-dimethoxy-11a-methyl-dibenz[a,f]azulene] |
| 133 | CCCC12Cc3cc(OC)ccc3CCC1c1ccccc1C2 (stereo not shown) [Compound 35] |
| 2600 | CCC12Cc3cc(OC)ccc3CC=C1c1ccc(OC)cc1C2 (stereo not shown) [Compound 37] |
| 42 | CCCC12Cc3cc(OC(C)=O)ccc3CCC1c1ccccc1C2 (stereo not shown) [Compound 50] |
| 410 | CC1CC2c3ccccc3CC2(C)Cc2cc(OCCN(C)C)ccc21 (stereo not shown) [Compound 51] |
| 68 | CCC12Cc3ccccc3C1=CCc1c(cccc1OC)C2 (stereo not shown) [Compound 52] |
| 541 | CC1CC2c3ccc(F)cc3CC2(C)Cc2cc(OCCN(C)C)ccc21 (stereo not shown) [Compound 55, 6,11a-Dimethyl-9-(N,N'-dimethylamino)ethoxy-2-fluoro-4b,5,6,11,11a,12-hexahydro-6,11a-dimethyldibenz[a,f]-azulene] |
| 34 | CCCC12Cc3cc(F)ccc3C1=CCc1c(cccc1OC)C2 (stereo not shown) [Compound 56] |
| 67 | CCCC12Cc3cc(OC)ccc3CC=C1c1ccc(F)cc1C2 (stereo not shown) [Compound 57] |
| 365 | COc1cc2c(cc1C(C)=O)C(C)CC1c3ccccc3CC1(C)C2 (stereo not shown) [Compound 61, 8-Acetyl-4b,5,6,11,11a,12-hexahydro-6,11a-dimethyl-9-methoxydibenz[a,f]azulene] |
| 9 | COc1cc2c(cc1[N+](=O)[O-])C(C)CC1c3ccc(F)cc3CC1(C)C2 (stereo not shown) [Compound 65, 6,11a-Dimethyl-2-fluoro-8-nitro-9-methoxy-4b,5,6,11,11a,12-hexahydrodibenz[a,f]azulene 1/4 Hydrate] |
| 185 | CCCCC12Cc3cc(OC)ccc3CC=C1c1ccccc1C2 (stereo not shown) [Compound 67] |

| Molecule | IC50 [nM] |
| --- | --- |
| 4b,5,6,11,11a,12-Hexahydro-7-methoxy-6,11a-dimethyldibenz-[a,f]azulene [Compound 109] | 1250 |
| 6,11,11a,12-Tetrahydro-8-carboxy-9-methoxy-6,11a-dimethyldibenz[a,f]azulene [Compound 80] | 10000 |
| CCCC12Cc3cc(O)ccc3CCC1c1ccccc1C2 (stereo not shown) [Compound 40] | 51 |
| CC[C@]12Cc3ccccc3C1C[C@@H](C)c1ccc(O)cc1C2 (stereo partly shown) [Compound 46] | 65 |
| CCCC12Cc3cc(OC)ccc3C(C)CC1c1ccccc1C2 (stereo not shown) [Compound 48] | 182 |
| CCOP(=O)(OCC)Oc1ccc2c(c1)CC1(C)Cc3cc(F)ccc3C1CC2C (stereo not shown) [Compound 49, 9-(2-Fluoro-6,11,11a,12-tetrahydro-6,11a-dimethyl)-dibenz[a,f]azulenyl diethyl phosphoric acid] | 72 |
